# Test results as given in patent US20240270673A1, “PROCESS AND SYSTEM FOR THE RECOVERY OF GLYOXYLIC ACID” (Avantium Knowledge Centre B.V., priority 2021, published 2024).
# Assay: Low-temperature crystallization of oxalic acid from aqueous glyoxylic acid/oxalic acid solutions (Crystal16 parallel crystallizer), liquid phase concentration after equilibration
# Type: physicochemical
# Details: liquid phase after equilibration over night
# Description: Low-temperature crystallization experiments have been carried out on a series of solutions containing glyoxylic acid and oxalic acid at different concentrations.
# Solutions containing glyoxylic acid and oxalic acid at different concentrations have been prepared and were cooled under controlled conditions in a Crystal16™ parallel crystallizer (Technobis Crystallization Systems). After reaching the set temperature the mixture as left to equilibrate over night after which a sample of the liquid phase was taken to determine the concentration of oxalic acid and glyoxylic acid after crystallization.
# [1] = Entry 1, T setpoint 10 degree Celsius, at RT glyoxylic 150.4 gr/L, oxalic 58.8 gr/L
# [2] = Entry 2, T setpoint 5 degree Celsius, at RT glyoxylic 150.4 gr/L, oxalic 58.8 gr/L
# [3] = Entry 3, T setpoint 0 degree Celsius, at RT glyoxylic 150.4 gr/L, oxalic 58.8 gr/L
# [4] = Entry 4, T setpoint −5 degree Celsius, at RT glyoxylic 150.4 gr/L, oxalic 58.8 gr/L
# [5] = Entry 5, T setpoint 10 degree Celsius, at RT glyoxylic 310.6 gr/L, oxalic 44.1 gr/L
# [6] = Entry 6, T setpoint 5 degree Celsius, at RT glyoxylic 310.6 gr/L, oxalic 44.1 gr/L
# [7] = Entry 7, T setpoint 0 degree Celsius, at RT glyoxylic 310.6 gr/L, oxalic 44.1 gr/L
# [8] = Entry 8, T setpoint −5 degree Celsius, at RT glyoxylic 566.8 gr/L, oxalic 29.5 gr/L
Compound,Glyoxylic concentration at setpoint [1] [gr/L],Glyoxylic concentration at setpoint [2] [gr/L],Glyoxylic concentration at setpoint [3] [gr/L],Glyoxylic concentration at setpoint [4] [gr/L],Glyoxylic concentration at setpoint [5] [gr/L],Glyoxylic concentration at setpoint [6] [gr/L],Glyoxylic concentration at setpoint [7] [gr/L],Glyoxylic concentration at setpoint [8] [gr/L],Oxalic concentration at setpoint [1] [gr/L],Oxalic concentration at setpoint [2] [gr/L],Oxalic concentration at setpoint [3] [gr/L],Oxalic concentration at setpoint [4] [gr/L],Oxalic concentration at setpoint [5] [gr/L],Oxalic concentration at setpoint [6] [gr/L],Oxalic concentration at setpoint [7] [gr/L],Oxalic concentration at setpoint [8] [gr/L]
"O=CC(=O)O [glyoxylic acid, Glyoxylic acid]",156.1,160.62,157.73,161.70,326.42,323.65,332.54,573.48,–,–,–,–,–,–,–,–
O=C(O)C(=O)O [oxalic acid],–,–,–,–,–,–,–,–,36.3,32.70,27.04,22.37,29.07,21.83,19.25,9.57
